According to ChEMBL document CHEMBL1201862, “PubChem BioAssay data set” (2004):
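Results reflect a 48-hour exposure of cells in 96-well plates to compound at five concentrations. GI50 is the concentration that inhibits growth by half.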 Activity calls are given as the source filed them. No stated cut-off is given here; in the data, active = GI50 up to about 1.1 µM and inactive = higher.

Columns and labels:
Test in all cases: NCI anticancer screen, dose series, 48 h
786-0 = test system: 786-0
A549 = test system: A549
ACHN = test system: ACHN
BT-549 = test system: BT-549
CAKI-1 = test system: CAKI-1
CCRF-CEM = test system: CCRF-CEM
COLO 205 = test system: COLO 205
DU-145 = test system: DU-145
HCC 2998 = test system: HCC 2998
HCT-116 = test system: HCT-116
HCT-15 = test system: HCT-15
HL-60 = test system: HL-60
HOP-62 = test system: HOP-62
HOP-92 = test system: HOP-92
HT-29 = test system: HT-29
Hs-578T = test system: Hs-578T
IGROV-1 = test system: IGROV-1
K562 = test system: K562
LOX IMVI = test system: LOX IMVI
M14 = test system: M14
MCF7 = test system: MCF7
MDA-MB-231 = test system: MDA-MB-231
MDA-MB-435 = test system: MDA-MB-435
MDA-N = test system: MDA-N
Malme-3M = test system: Malme-3M
NCI-H226 = test system: NCI-H226
NCI-H23 = test system: NCI-H23
NCI-H460 = test system: NCI-H460
NCI-H522 = test system: NCI-H522
NCI/ADR-RES = test system: NCI/ADR-RES
OVCAR-3 = test system: OVCAR-3
OVCAR-4 = test system: OVCAR-4
OVCAR-5 = test system: OVCAR-5
OVCAR-8 = test system: OVCAR-8
PC-3 = test system: PC-3
RXF 393 = test system: RXF 393
SF-268 = test system: SF-268
SF-295 = test system: SF-295
SF-539 = test system: SF-539
SK-MEL-28 = test system: SK-MEL-28
SK-MEL-2 = test system: SK-MEL-2
SK-MEL-5 = test system: SK-MEL-5
SK-OV-3 = test system: SK-OV-3
SN12C = test system: SN12C
SNB-19 = test system: SNB-19
SNB-75 = test system: SNB-75
SR = test system: SR
SW-620 = test system: SW-620
TK-10 = test system: TK-10
U-251 = test system: U-251
UACC-257 = test system: UACC-257
UACC-62 = test system: UACC-62
UO-31 = test system: UO-31
A498 = test system: A498
EKVX = test system: EKVX
KM12 = test system: KM12
RPMI-8226 = test system: RPMI-8226
T47D = test system: T47D
MOLT-4 = test system: MOLT-4

Measured: GI50

N=C(N)n1nc2c(c1O)CCC2
> 100 µM: HCT-15
inactive: 786-0 > 100 µM | A549 > 100 µM | ACHN > 100 µM | BT-549 > 100 µM | CAKI-1 > 100 µM | CCRF-CEM > 100 µM | COLO 205 > 100 µM | DU-145 > 100 µM | HCC 2998 > 100 µM | HCT-116 > 100 µM | HL-60 > 100 µM | HOP-62 > 100 µM | HOP-92 > 100 µM | HT-29 > 100 µM | Hs-578T > 100 µM | IGROV-1 > 100 µM | K562 > 100 µM | LOX IMVI > 100 µM | M14 > 100 µM | MCF7 > 100 µM | MDA-MB-231 > 100 µM | MDA-MB-435 > 100 µM | MDA-N > 100 µM | Malme-3M > 100 µM | NCI-H226 > 100 µM | NCI-H23 > 100 µM | NCI-H460 > 100 µM | NCI-H522 > 100 µM | NCI/ADR-RES > 100 µM | OVCAR-3 > 100 µM | OVCAR-4 > 100 µM | OVCAR-5 > 100 µM | OVCAR-8 > 100 µM | PC-3 > 100 µM | RXF 393 > 100 µM | SF-268 > 100 µM | SF-295 > 100 µM | SF-539 > 100 µM | SK-MEL-28 > 100 µM | SK-MEL-2 > 100 µM | SK-MEL-5 > 100 µM | SK-OV-3 > 100 µM | SN12C > 100 µM | SNB-19 > 100 µM | SNB-75 > 100 µM | SW-620 > 100 µM | TK-10 > 100 µM | U-251 > 100 µM | UACC-257 > 100 µM | UACC-62 > 100 µM | UO-31 > 100 µM
active: SR < 0.01 µM

CCCSc1ccc2[nH]c(/N=C/c3ccco3)cc2c1
active: RPMI-8226 0.184 µM
inactive: 786-0 40.2 µM | A498 34.4 µM | A549 77.6 µM | ACHN 49.5 µM | BT-549 31 µM | CAKI-1 34 µM | CCRF-CEM 27.6 µM | COLO 205 22 µM | DU-145 63.5 µM | EKVX 3.77 µM | HCT-116 35.4 µM | HL-60 29.8 µM | HOP-62 6.64 µM | HOP-92 81.8 µM | HT-29 14.3 µM | Hs-578T 29.1 µM | IGROV-1 36.5 µM | KM12 49.4 µM | LOX IMVI 37.7 µM | M14 44.6 µM | MCF7 6.34 µM | MDA-MB-435 17.8 µM | Malme-3M 67.9 µM | NCI-H23 33.8 µM | NCI-H522 22.2 µM | NCI/ADR-RES 27.5 µM | OVCAR-3 29.8 µM | OVCAR-4 39.4 µM | OVCAR-5 6.08 µM | OVCAR-8 31.5 µM | PC-3 43.7 µM | RXF 393 22.3 µM | SF-268 52.6 µM | SF-295 > 100 µM | SF-539 12.4 µM | SK-MEL-28 41.8 µM | SK-MEL-2 23.7 µM | SK-MEL-5 13.7 µM | SK-OV-3 30.5 µM | SN12C 29.9 µM | SNB-19 > 100 µM | SNB-75 > 100 µM | SR 1.68 µM | SW-620 40.2 µM | T47D 38.1 µM | UACC-257 33.6 µM | UACC-62 52.8 µM | UO-31 41.9 µM
24.3 µM: HCT-15

O=C(O)c1ccc(P(=O)(O)c2ccc(C(=O)O)cc2Br)c(Br)c1
> 100 µM: HCT-15
inactive: 786-0 > 100 µM | A549 > 100 µM | BT-549 > 100 µM | CAKI-1 > 100 µM | CCRF-CEM > 10 µM | COLO 205 > 100 µM | DU-145 > 100 µM | EKVX > 100 µM | HCC 2998 > 100 µM | HCT-116 > 100 µM | HL-60 > 100 µM | HOP-62 > 100 µM | HOP-92 > 100 µM | Hs-578T > 100 µM | IGROV-1 > 100 µM | K562 > 100 µM | KM12 > 100 µM | LOX IMVI > 100 µM | M14 > 100 µM | MCF7 > 100 µM | MDA-MB-231 > 100 µM | MDA-MB-435 > 100 µM | MDA-N > 100 µM | MOLT-4 > 100 µM | NCI-H226 > 100 µM | NCI-H23 > 100 µM | NCI-H522 > 100 µM | OVCAR-3 > 100 µM | OVCAR-8 > 100 µM | PC-3 > 100 µM | RPMI-8226 > 100 µM | RXF 393 > 100 µM | SF-268 > 100 µM | SF-295 > 100 µM | SF-539 > 100 µM | SK-MEL-28 > 100 µM | SK-MEL-2 > 100 µM | SK-MEL-5 > 100 µM | SK-OV-3 > 100 µM | SN12C > 100 µM | SNB-19 > 100 µM | SNB-75 > 100 µM | SW-620 > 100 µM | TK-10 > 100 µM | UACC-257 > 100 µM | UACC-62 > 100 µM | UO-31 > 100 µM

O=C1C=CC(=C(c2ccccc2)c2ccc(O)cc2)C=C1
inactive: 786-0 18.7 µM | A549 17.4 µM | ACHN 19.4 µM | BT-549 6.03 µM | CAKI-1 17.3 µM | CCRF-CEM 1.16 µM | COLO 205 14.9 µM | DU-145 17.4 µM | EKVX 13.7 µM | HCC 2998 31.1 µM | HCT-116 50.5 µM | HL-60 8.15 µM | HOP-62 21.9 µM | HOP-92 18 µM | HT-29 20.7 µM | Hs-578T 16.7 µM | IGROV-1 8.41 µM | K562 15.1 µM | KM12 19.4 µM | LOX IMVI 4.51 µM | M14 24.2 µM | MCF7 13.4 µM | MDA-MB-231 15.2 µM | MDA-MB-435 15.7 µM | MOLT-4 3.33 µM | Malme-3M 13.6 µM | NCI-H226 19.5 µM | NCI-H23 18.7 µM | NCI-H460 17.3 µM | NCI-H522 13.7 µM | NCI/ADR-RES 32.7 µM | OVCAR-3 16.2 µM | OVCAR-4 14.3 µM | OVCAR-5 20.3 µM | OVCAR-8 16.9 µM | PC-3 22.1 µM | RPMI-8226 9.12 µM | RXF 393 14.2 µM | SF-268 20 µM | SF-295 19.4 µM | SF-539 13.2 µM | SK-MEL-28 16.1 µM | SK-MEL-2 15.8 µM | SK-MEL-5 11.5 µM | SN12C 13.6 µM | SNB-19 13.8 µM | SNB-75 16.9 µM | SR 7.45 µM | SW-620 18.1 µM | TK-10 19.2 µM | U-251 12.4 µM | UACC-257 16.9 µM | UACC-62 14.1 µM | UO-31 14.8 µM
14.2 µM: HCT-15

CCCC[N+](CCCC)(CCCC)CCCC.O=S(=O)([O-])ON=C1c2ccccc2-c2ccccc21
inactive: 786-0 > 100 µM | A498 > 100 µM | A549 > 100 µM | ACHN > 100 µM | BT-549 > 100 µM | CAKI-1 > 100 µM | CCRF-CEM > 100 µM | COLO 205 > 100 µM | DU-145 > 100 µM | EKVX > 100 µM | HCC 2998 > 100 µM | HCT-116 > 100 µM | HL-60 36 µM | HOP-62 > 100 µM | HOP-92 > 100 µM | HT-29 > 100 µM | Hs-578T > 100 µM | IGROV-1 > 100 µM | K562 > 100 µM | KM12 > 100 µM | LOX IMVI > 100 µM | M14 > 100 µM | MCF7 > 100 µM | MDA-MB-231 > 100 µM | MDA-MB-435 > 100 µM | MOLT-4 > 100 µM | NCI-H226 > 100 µM | NCI-H23 > 100 µM | NCI-H460 > 100 µM | NCI-H522 47.2 µM | NCI/ADR-RES > 100 µM | OVCAR-3 > 100 µM | OVCAR-4 > 100 µM | OVCAR-5 > 100 µM | OVCAR-8 > 100 µM | PC-3 > 100 µM | RPMI-8226 50.8 µM | RXF 393 > 100 µM | SF-268 > 100 µM | SF-295 > 100 µM | SF-539 > 100 µM | SK-MEL-28 > 100 µM | SK-MEL-2 > 100 µM | SK-MEL-5 61.5 µM | SK-OV-3 > 100 µM | SN12C > 100 µM | SNB-19 > 100 µM | SNB-75 > 100 µM | SR > 100 µM | SW-620 > 100 µM | T47D > 100 µM | TK-10 > 100 µM | U-251 > 100 µM | UACC-257 > 100 µM | UACC-62 > 100 µM | UO-31 > 100 µM
10 µM: HCT-15

C=C1C(=O)[C@@]23CC1C(O)[C@@H](OC(C)=O)[C@@H]2C1(C)C(OC(C)=O)C[C@@H](OC(C)=O)C(C)(C)[C@@H]1C[C@H]3OC(C)=O (stereo partly specified)
2.6 µM: HCT-15
inactive: 786-0 5.52 µM | A498 > 10 µM | ACHN > 10 µM | BT-549 1.47 µM | CAKI-1 6.27 µM | DU-145 > 10 µM | HCC 2998 > 10 µM | HOP-62 > 10 µM | Hs-578T 2.9 µM | LOX IMVI 6.35 µM | MCF7 2.58 µM | MDA-N 3.85 µM | NCI-H226 > 10 µM | NCI/ADR-RES > 10 µM | PC-3 > 10 µM | SN12C 3.77 µM | T47D 2.12 µM
